{"source": "patent US20100061943A1", "about": "“ORAL HEALTH COMPOSITION COMPRISING ALCHEMILLA VULGARIS” (MARS INCORPORATED, priority 2006, published 2010)", "type_in_all_cases": "cell-based, cats", "key": {"[1]": {"tested_on": "Trypsin-like protease activity", "assay": "Feline plate biofilm assay (PBA): protease activity (liquid BAPNA assay)", "settings": "48 hours biofilm, extracts at 500 μg/ml, vs no active control", "experimental": "(§1) The assay requires fresh supragingival feline dental plaque and saliva for inoculation. The inoculum consists of pooled dental plaque and unfiltered saliva sampled from a group of 18 cats, varying in age, breed and oral health status.\n(§2) The plaque and saliva were resuspended in artificial saliva to form the inoculum of approximately 10% plaque and 30% saliva.\n(§3) The plate biofilm assay (PBA) utilises a 24 well plate format in which biofilms, representative of feline dental plaque, are grown on hydroxyapatite (HA) discs. Prior to being introduced to the 24 well assay plate, each HA disc is preconditioned for 2 hours in a solution of 50% filter sterilised feline saliva in artificial feline saliva. The preconditioning step stimulates the formation of a salivary pellicle on the HA disc surface. […] Each HA disc, with the exception of those being used for biomass quantification, is placed into 500 μl PBS and vortex mixed for 30 seconds to remove biofilm growth from the disc into solution. […] Biofilm-covered HA discs that are being used for biomass quantification are removed from the 24 well assay plate and used directly in the crystal violet assay.\nTrypsin-like protease activity was measured using the liquid BAPNA assay, a colourimetric assay in which the amount of trypsin present in a sample is directly proportional to the intensity of the colour developed. […]"}, "anaerobes": {"tested_on": "anaerobes", "assay": "Feline plate biofilm assay (PBA): bacterial viable counts, anaerobes", "settings": "48 hours biofilm, extracts at 500 μg/ml, vs no active control", "experimental": "as §1, §2\nas §3, with “saliva.” for “saliva. The preconditioning step stimulates the formation of a salivary pellicle on the HA disc surface.”\n(§4) Viable numbers of bacteria were quantified using Columbia blood agar plates supplemented with haemin and menadione. Aerobes were counted after incubation for 2 days and anaerobes, including black pigmenting colonies (BPC), were counted after incubation at appropriate conditions for 9 days. […]"}, "Aerobes": {"tested_on": "Aerobes", "assay": "Feline plate biofilm assay (PBA): bacterial viable counts, aerobes", "settings": "48 hours biofilm, extracts at 500 μg/ml, vs no active control", "experimental": "as §1, §2\nas §3, with “saliva.” for “saliva. The preconditioning step stimulates the formation of a salivary pellicle on the HA disc surface.”\nas §4"}, "[2]": {"tested_on": "black pigmenting colonies (BPC)", "assay": "Feline plate biofilm assay (PBA): bacterial viable counts, black pigmenting colonies", "settings": "48 hours biofilm, extracts at 500 μg/ml, vs no active control", "experimental": "as §1, §2\nas §3, with “saliva.” for “saliva. The preconditioning step stimulates the formation of a salivary pellicle on the HA disc surface.”\nas §4"}, "[3]": {"tested_on": "biofilms representative of feline dental plaque", "assay": "Feline plate biofilm assay (PBA): biomass quantification (crystal violet assay)", "settings": "48 hours biofilm, OD595, extracts at 500 μg/ml, vs no active control", "experimental": "as §1, §2, §3\nThe total amount of biofilm grown on the HA discs was quantified using the crystal violet staining method. Biomass was represented as being directly proportional to the OD reading at 595 nm (OD595) of the samples compared to controls. […]"}}, "data": [{"compound": "[H]/N=C(\\N/C(=N/[H])NCCCCCCNC(=N)NC(=N)Nc1ccc(Cl)cc1)Nc1ccc(Cl)cc1", "note": "[Chlorhexidine, chlorhexidine]", "values": [{"measurement": "Protease (% reduction)", "setting": "[1]", "value": 90.0, "unit": "%"}, {"measurement": "Anaerobe (Log 10 reduction)", "setting": "anaerobes", "value": 2.16, "unit": "Log 10"}, {"measurement": "Aerobe (Log 10 reduction)", "setting": "Aerobes", "value": 1.91, "unit": "Log 10"}, {"measurement": "BPC (Log 10 reduction)", "setting": "[2]", "value": 4.86, "unit": "Log 10"}, {"measurement": "Biomass (% reduction)", "setting": "[3]", "value": 79.0, "unit": "%"}]}]}
